# According to patent US6984624B2, “Composition containing an iron complexing protein and a precursor of nitrogen monoxide metabolism and/or a chemical donor of nitrogen monoxide and uses thereof” (Isocell S.A., priority 2000, dated 2006):
# Assays:
# Type in all cases: cell-based, human
# [1] = tested on: Intestinal epithelial cells of the Caco-2 line; experiment: Iron fixation at the cellular level with added chemical donor of NO (Example 2); conditions: SNAP between 0 and 1 μM added to tubes 2 (Lf-^59Fe) and 4 (Lf-^59Fe + ^59Fe) of Table II
# Experimental: (§1) Intestinal epithelial cells of the Caco-2 line derived from a colon cancer were incubated in a proportion of 2×10^6 cells per ml in an RPMI 1640 medium buffered at pH 7.4, in the presence of 25 mmolar of Hepes, containing 15% (v/v) of fetal calf serum, 2 mmol/l of L-glutamine and 1% (v/v) of a solution of streptomycin-penicillin, sold by the company Gibco.
# Tubes of intestinal epithelial cell cultures were prepared and cultured under the same conditions as those described above in Example 1.
# Iron fixation at the cellular level was then initiated by adding Lf-^59Fe and/or labeled iron.
# One of the cell culture tubes received none of the constituents, so as to serve as a control.
# The distribution of the constituents, and also the concentrations at which they were used, appear in Table II below:
# The culture tubes then received SNAP in amounts ranging between 0 and 1 μM, and the cellular fixation of radiolabeled iron were then measured using a device for measuring the radioactivity.
# [2] = tested on: Intestinal epithelial cells of the Caco-2 line; experiment: Degree of iron fixation at the cellular level as a function of concentrations (Example 3); conditions: Caco-2 cells, after 72 hours of incubation; tube contents per Table III (mg/ml); Control = 1
# Experimental: as §1
# Twelve tubes of epithelial cell cultures were prepared according to the conditions described above in Example 1.
# Iron fixation at the cellular level was then initiated by adding Lf-^59Fe and/or labeled iron and/or L-arginine.
# One of the cell culture tubes received none of these three constituents, so as to act as a control.
# The distribution of the constituents, and also the concentrations at which they were used, appear in Table III below:
# The degree of cellular fixation of iron was measured after 72 hours of incubation using a device for measuring the radioactivity.
# [3] = tested on: Intestinal epithelial cells of the Caco-2 line; experiment: Iron fixation at the cellular level with added inhibitor of the L-arginine pathway (Example 1, FIG. 2); conditions: 1 mM added to the medium of tubes 1, 2, 4 and 8 of Table I; virtually returned to the degree without L-arginine (tube 2)
# Experimental: as §1
# The cells were then incubated for a period of 16 hours in Eppendorf tubes kept stirring for the final 2 hours of the culture period. Throughout the incubation period, the amount of cellular iron was measured by centrifugation pellet of the cells a first time after 30 minutes (t=0.5), then after one hour (t=1), and then every hour (t=2 to t=16), using a device for measuring the radioactivity.
smiles,measurement,setting,value
"CC(=O)N[C@H](C(=O)O)C(C)(C)SN=O (racemic) [SNAP, S-nitroso-N-acetylpenicillamine]",Degree of iron fixation in the epithelial cells after addition of SNAP,[1],increase the degree of iron fixation in the epithelial cells
"N=C(N)NCCC[C@H](N)C(=O)O [Cell culture tube 8, L-arginine, reference compound]",Degree of iron fixation in the cells (cpm ^59Fe),[2],1 cpm ^59Fe
"COC(=O)[C@@H](N)CCCNC(=N)N[N+](=O)[O-] [L-NAME, N^ω-nitro-L-arginine methyl ester]",Degree of iron fixation at the cellular level after addition of L-NAME,[3],very large decrease in the degree of iron fixation at the cellular level
